Laboratory results taken from US7727511B2, “Agents for imaging soluble a-beta” (priority 2003, dated 2010).
“Also recorded” adds a separate entry of the source.

Columns and labels:
[1] = molecular target: T1, beta-amyloid 1-40 (20% biotin) fibrils (Homo sapiens, UniProt P05067); assay: Scintillation proximity assay (SPA), direct/saturation binding of tritium labeled probe to fibrils; conditions: immobilized fibrils, identical conditions
T1 construct: purchased Bachem H-1194; biotinylated H-5914; host or cells: synthetic peptide
Description: (§1) B. Insoluble A-beta (1-40) fibril formation: Lyophilized human beta-amyloid 1-40 peptide (Catalog number H-1194, Bachem) was solubilized with HFIP to produce a dry clear film following the process described above for beta-amyloid 1-42. The clear film of beta-amyloid 1-40 was diluted with distilled water to achieve a 6 mg/mL concentration. […] The clear solution was diluted to 1 mg/mL with PBS, pH 7.4 to obtain a final concentration of 1 mg/mL beta-amyloid 1-40, and then incubated at 37° C. on an orbital shaker at 200 RPM for 4 days. A cloudy solution was produced, and the fibril production was confirmed by measuring changes in fluorescence of Thioflavin T, as well as by atomic force microscopy and transmission electron microscopy. Fibrils were used immediately after their production was confirmed.
For SPA and atomic force microscopy (AFM) experiments, preparations of soluble oligomers and fibrils contained 20% biotinylated beta-amyloid 1-42 and 1-40, respectively (H-5642, H-5914, Bachem). […]
For the saturation-binding assay, isotopic dilution of radiolabeled 49b with unlabeled 49b was performed. ^3H-49b was added to 500 uM of unlabeled 49b to a final concentration of 50 μCi/mL ^3H-49b. […] Assays were incubated overnight and counted the following morning. […]

[2] = molecular target: T2, beta-amyloid soluble oligomers (Homo sapiens, UniProt P05067); assay: Ex vivo fluorescent binding assay, pre-formed soluble oligomers on naive rat brain sections; conditions: 50 μM probe, naive rat brain section, fluorescence microscopy
T2 construct: 1 mg of human beta-amyloid 1-42 (H-5642, Bachem); purchased Bachem H-5642; host or cells: synthetic peptide
Description: A. 1 mg of human beta-amyloid 1-42 (H-5642, Bachem) and 500 uL of 1,1,1,3,3,3 hexafluoro-2-propanol (HFIP) (Aldrich) were chilled in separate bottles on ice for 30 mins. Cold beta-amyloid 1-42 was solubilized with cold HFIP. The mixture was incubated for 1 hr at room temperature until it turned clear. The resulting solution was then dried to a film under vacuum. The film was dissolved again in cold HFIP and incubated another 1 hr at room temperature. The resulting solution was separated into aliquots in several microcentrifuge tubes. HFIP was removed under vacuum, and the films were stored at −20° C. until use. […]
(§2) A 1/100th dilution of the secondary antibody Alexa Fluor 594-goat anti-mouse IgG (Molecular Probes) in PBS was applied onto the slides, and incubated at room temperature for 1.5 hours. […] Microscopic examination and imaging was performed using a Leica wide-field fluorescence microscope using filter cube A (band pass 340-380 nm with a 400 nm dichroic mirror and a long pass 400 nm suppression filter) for 49b, cube E4 (band pass 436 nm with 455 dichroic mirror and a long pass 470 nm suppression filter) for Thioflavin T, and TX2 (band pass 520-600 nm with 595 nm dichroic mirror and 645/75 band pass suppression filter) for 6E10 immunostaining. […]

[3] = molecular target: T3, beta-amyloid fibrils (Homo sapiens, UniProt P05067); assay: Ex vivo fluorescent binding assay, pre-formed fibrils on naive rat brain sections; conditions: 50 μM probe, naive rat brain section, fluorescence microscopy
T3 construct: Lyophilized human beta-amyloid 1-40 peptide (Catalog number H-1194, Bachem); purchased Bachem H-1194; host or cells: synthetic peptide
Description: as §1, with “Fibrils were used immediately after their production was confirmed.” left out
as §2

T1 sequence (P05067 672-711 limits assumed): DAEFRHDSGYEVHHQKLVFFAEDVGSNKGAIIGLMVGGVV
T3 sequence (P05067 672-711 limits assumed): as above
T2 sequence (P05067 672-713 limits assumed): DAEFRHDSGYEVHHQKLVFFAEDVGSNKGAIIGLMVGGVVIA

SMILES: O=Cc1ccc(-c2oc3ccccc3c2CO)o1 [Compound 49b, 2-(2-formyl-5-furanyl)-3-hydroxymethyl benzofuran]
- affinity to fibrils [1]: no measurable affinity; also recorded: No demonstrable affinity
- staining of immobilized oligomers [2]: clear staining of oligomers with low background
- staining of immobilized fibrils [3]: No staining was observed
